In patent US10857127B2, “Vaginal delivery systems containing selective estrogen receptor modulator (SERM) and uses thereof” (Azure Biotech, Inc., priority 2016, dated 2020):
Where “and” joins values, the source holds several entries; their conditions need not be identical. Equal values may be shown once. Where a name gives a salt, the structure may show the parent alone. One block for each compound: values may come before it.

Legend:
[1] = Dissolution studies of Lasofoxifene in organic solvents and surfactants; assay type: physicochemical; details: for Dissolution of Lasofoxifene in various organic solvents and surfactants, 2 mg/ml: Lasofoxifene 2 mg/ml in the labelled solvent/surfactant; for Dissolution of Lasofoxifene in various organic solvents and surfactants, 2 mg/ml / Dissolution of Lasofoxifene in various organic solvents and surfactants, 3 mg/ml / Dissolution of Lasofoxifene in various organic solvents and surfactants, 6 mg/ml: visual examination; for Dissolution of Lasofoxifene in various organic solvents and surfactants, 3 mg/ml: Lasofoxifene 3 mg/ml in the labelled solvent/surfactant; for Dissolution of Lasofoxifene in various organic solvents and surfactants, 6 mg/ml: Lasofoxifene 6 mg/ml in the labelled solvent/surfactant
Experimental: The solubility of Lasofoxifene was investigated by screening various organic solvents and surfactants in increasing concentrations. The term “formulation” may refer to a pharmaceutical composition comprising […] pharmaceutically acceptable excipients.
First, 1 mg of Lasofoxifene was weighed into Eppendorf vessels and 500 μl of organic solvents and surfactants as listed in Table 20 were added. In cases of insufficient dissolution of the API, samples were treated with ultrasound for 30 min and, if necessary, heated to 50° C. while shaking (300 rpm). Afterwards, samples were examined visually regarding drug dissolution. In case of entire dissolution, the experiment was repeated with increasing drug concentrations until maximum dissolution was achieved. In addition, further organic solvents and surfactants were tested.

[2] = as above; assay type: physicochemical; details: Lasofoxifene 1 mg/ml in the labelled solvent/surfactant; visual examination
[3] = system: vaginal epithelium; test: Ovariectomized rat dosing frequency study: mucification of vaginal epithelium (PAS staining, 0-4 scale); assay type: in vivo; details: individual animals
Description: (§1) A total of 96 young, about 6-8 weeks old, female Sprague Dawley rats were used in this pilot study. The rats were randomized by body weight into six (6) per group and sixteen (16) groups. Ninety (N=90) of the animals were ovariectomized (OVX), and six (N=6) of the animals have a sham OVX surgery. One group of six (6) animals were terminated along with the sham-operated group at Day-14 post-OVX surgery. Three groups of eighteen (18) animals were respectively terminated along with the vehicle group at Day-14, Day-17 or Day-21 post-OVX surgery. The dosing regimens, starting on Day 14 post OVX, by inserting a capsule containing the desired Lasofoxifene formulations (e.g., Test Articles F-1-L, F-1-H, F-2-L, F-2-H) into vaginal tract under brief general anesthesia.
(§2) Rats were assigned to treatment groups by randomization in BioBook system (IDBS) based on the body weights. Grouping according to the below table 1. Each rat was dosed with ready to use solution, […] into vaginal tract with a syringe.
(§3) Annotation: Groups 1 (N=6): Day-0 vehicle; dose once at 100 μL on Day-0 at 14-day post OVX, and terminate at Day-14 post OVX. Groups 2 (N=6): Day-3 vehicle; dose once at 100 μL on Day-0 at 14-day post OVX, and terminate at Day-17 post OVX. Groups 3 (N=6): Day-7 vehicle; dose once at 100 μL on Day-0 at 14-day post OVX, and terminate at Day-21 post OVX. Groups 4 (N=6): Day-0 sham: terminate at Day-14 post sham-operation. Groups 5 (N=6): F-1-L; dose once at 0.3 μg/kg (100 μL) on Day-0 at 14-day post OVX, and terminated at Day-3 after dosing. Groups 6 (N=6): F-1-H; dose once at 3.0 μg/kg (100 μL) on Day-0 at 14-day post OVX, and terminated at Day-3 after dosing. Groups 7 (N=6): F-2-L; dose once at 0.3 μg/kg (100 μL) on Day-0 at 14-day post OVX, and terminated at Day-3 after dosing. Groups 8 (N=6): F-2-H; dose once at 3.0 μg/kg (100 μL) on Day-0 at 14-day post OVX, and terminated at Day-3 after dosing. Groups 9 (N=6): F-1-L; dose once at 0.3 μg/kg (100 μL) on Day-0 at 14-day post OVX, and terminated at Day-7 after dosing. Groups 10 (N=6): F-1-H; dose once at 3.0 μg/kg (100 μL) on Day-0 at 14-day post OVX, and terminated at Day-7 after dosing. Groups 11 (N=6): F-2-L; dose once at 0.3 μg/kg (100 μL) on Day-0 at 14-day post OVX, and terminated at Day-7 after dosing. Groups 12 (N=6): F-2-H; dose once at 3.0 μg/kg (100 μL) on Day-0 at 14-day post OVX, and terminated at Day-7 after dosing. Groups 13 (N=6): F-1-L; dose twice at respectively 0.3 μg/kg (100 μL) on Day-0 and Day-4 at 14-day and 18-day post OVX, and terminated at Day-7 after dosing. Groups 14 (N=6): F-1-H; dose twice at respectively 3.0 μg/kg (100 μL) on Day-0 and Day-4 at 14-day and 18-day post OVX, and terminated at Day-7 after dosing. Groups 15 (N=6): F-2-L; dose twice at respectively 0.3 μg/kg (100 μL) on Day-0 and Day-4 at 14-day and 18-day post OVX, and terminated at Day-7 after dosing. Groups 16 (N=6): F-2-H; dose twice at respectively 3.0 μg/kg (100 μL) on Day-0 and Day-4 at 14-day and 18-day post OVX, and terminated at Day-7 after dosing. Body Weight
(§4) All animals were humanely sacrificed by CO2 and the vaginal and uterine wet-weight were collected from each, and about 0.5 mL blood were collected for analysis of serum cholesterol level. Each uterus and vagina was weighed separately and was placed in 10% NBF for at least 48 hours before being sent to Histology Laboratory for tissue processing. The paraffin blocks of these tissues were sectioned, about 4-8 μm in thickness, and one section were stained with H & E for general microscopic evaluation, and one section were stained with PAS for assessment of mucification of the epithelium.
The PAS stained sections were used to evaluate the amount of mucification by visual approximation on a 0-4 scale, with the 4 stands for the highest amount.
Data were analyzed using GraphPad Prism software (GraphPad Software, Inc., La Jolla, Calif., USA) and are expressed as the mean±SD. […]

[4] = system: vaginal epithelium; test: Ovariectomized rat dosing frequency study: thickness of the vaginal epithelium (H & E histomorphometry); assay type: in vivo; design: unit not given here; details: individual animals
Description: as §1, §2, §3, §4
The H & E stained sections were used to measure the height of the vaginal epithelium at minimum of ten (10) sites per slide. Photomicrographs of the slides were included in the appendix or burned on a DVD disc to accompany the final report. […]

[5] = system: Uterine; test: Ovariectomized rat dosing frequency study: mucification, Uterine (0-4 scale); assay type: in vivo; details: individual animals
[6] = system: Uterine; test: Ovariectomized rat dosing frequency study: epithelium thickness, Uterine; assay type: in vivo; design: unit not given here; details: individual animals

Structure (SMILES): CO[C@H]1CO[C@H]2[C@@H]1OC[C@H]2OC [Isosorbide dimethyl ether (DMI), Isosorbide dimethyl ether]
Dissolution of Lasofoxifene in various organic solvents and surfactants, 2 mg/ml [1]: partially | Dissolution of Lasofoxifene in various organic solvents and surfactants, 3 mg/ml [1]: not dissolved | Dissolution of Lasofoxifene in various organic solvents and surfactants, 1 mg/ml [2]: dissolved*

Dissolution of Lasofoxifene in various organic solvents and surfactants, 2 mg/ml [1]: partially | Dissolution of Lasofoxifene in various organic solvents and surfactants, 3 mg/ml [1]: not dissolved | Dissolution of Lasofoxifene in various organic solvents and surfactants, 1 mg/ml [2]: dissolved*
Structure (SMILES): OCC(O)CO [Glycerol 99%, Glycerol]

Dissolution of Lasofoxifene in various organic solvents and surfactants, 1 mg/ml [2]: not dissolved
Structure (SMILES): CCOC(=O)CC(O)(CC(=O)OCC)C(=O)OCC [Triethyl citrate (TEC), Triethyl citrate]

Dissolution of Lasofoxifene in various organic solvents and surfactants, 1 mg/ml [2]: not dissolved
Structure (SMILES): CCCCCCCC/C=C\CCCCCCCC(=O)OCC [Ethyloleate]

Dissolution of Lasofoxifene in various organic solvents and surfactants, 2 mg/ml [1]: not dissolved
Structure (SMILES): CC(=O)OCC(COC(C)=O)OC(C)=O [Triacetin (TAC), Triacetin]

Dissolution of Lasofoxifene in more lipophilic excipients ([1]; in the labelled excipient): could not be dissolved | Dissolution of Lasofoxifene in various organic solvents and surfactants, 1 mg/ml [2]: not dissolved
Structure (SMILES): CCCCOC(=O)CC(O)(CC(=O)OCCCC)C(=O)OCCCC [Tributyl citrate (TBC), Tributyl citrate]

Structure (SMILES): Oc1ccc2c(c1)CC[C@H](c1ccccc1)[C@@H]2c1ccc(OCCN2CCCC2)cc1 [Lasofoxifene]
Mucification of vaginal epithelium, Vagina ([3]; group G3): 2 (4×) and 3 (2×) | Mucification of vaginal epithelium, Vagina ([3]; group G5): 3 and 1 (3×) and 2 (2×) | Mucification of vaginal epithelium, Vagina ([3]; group G6): 2 (2×) and 1 (4×) | Mucification of vaginal epithelium, Vagina ([3]; group G7): 1 (2×) and 2 (4×) | Mucification of vaginal epithelium, Vagina ([3]; group G8): 2 (2×) and 1 (3×) and 3 | Mucification of vaginal epithelium, Vagina ([3]; group G9): 3 (3×) and 1 and 2 (2×) | Mucification of vaginal epithelium, Vagina ([3]; group G10): 3 (3×) and 2 (3×) | Mucification of vaginal epithelium, Vagina ([3]; group G11): 3 (2×) and 4 and 1 and 2 (2×) | Mucification of vaginal epithelium, Vagina ([3]; group G12): 3 (4×) and 2 and 4 | Mucification of vaginal epithelium, Vagina ([3]; group G13): 4 (4×) and 3 (2×) | Mucification of vaginal epithelium, Vagina ([3]; group G14): 4 (3×) and 3 (3×) | Mucification of vaginal epithelium, Vagina ([3]; group G15): 2 (2×) and 3 (4×) | Mucification of vaginal epithelium, Vagina ([3]; group G16): 4 and 3 (4×) and 2 | Thickness of the vaginal epithelium, Vagina ([4]; group G3): 23 (2×) and 22 and 21 and 15 and 18 | Thickness of the vaginal epithelium, Vagina ([4]; group G5): 26 and 30 and 32 (2×) and 27 and 16 | Thickness of the vaginal epithelium, Vagina ([4]; group G6): 29 (2×) and 24 and 41 and 27 and 22 | Thickness of the vaginal epithelium, Vagina ([4]; group G7): 27 and 18 and 21 and 20 (2×) and 17 | Thickness of the vaginal epithelium, Vagina ([4]; group G8): 32 (2×) and 24 and 28 and 14 and 26 | Thickness of the vaginal epithelium, Vagina ([4]; group G9): 21 and 15 (2×) and 25 and 17 and 18 | Thickness of the vaginal epithelium, Vagina ([4]; group G10): 27 and 19 and 17 (2×) and 14 and 22 | Thickness of the vaginal epithelium, Vagina ([4]; group G11): 17 (2×) and 20 and 15 and 25 and 19 | Thickness of the vaginal epithelium, Vagina ([4]; group G12): 16 and 21 and 17 and 18 and 20 and 19 | Thickness of the vaginal epithelium, Vagina ([4]; group G13): 20 (3×) and 18 and 23 and 19 | Thickness of the vaginal epithelium, Vagina ([4]; group G14): 15 and 23 and 13 and 16 and 18 and 25 | Thickness of the vaginal epithelium, Vagina ([4]; group G15): 21 and 22 and 23 (3×) and 25 | Thickness of the vaginal epithelium, Vagina ([4]; group G16): 22 and 28 and 20 and 19 (2×) and 16 | Mucification, Uterine ([5]; group G3): 0 | Mucification, Uterine ([5]; group G5): 0 | Mucification, Uterine ([5]; group G6): 0 | Mucification, Uterine ([5]; group G7): 0 | Mucification, Uterine ([5]; group G8): 0 | Mucification, Uterine ([5]; group G9): 0 | Mucification, Uterine ([5]; group G10): 0 | Mucification, Uterine ([5]; group G11): 0 | Mucification, Uterine ([5]; group G12): 0 | Mucification, Uterine ([5]; group G13): 0 | Mucification, Uterine ([5]; group G14): 0 | Mucification, Uterine ([5]; group G15): 0 | Mucification, Uterine ([5]; group G16): 0 | Thickness, Uterine ([6]; group G3): 6 and 7 (3×) and 8 (2×) | Thickness, Uterine ([6]; group G5): 9 (4×) and 8 (2×) | Thickness, Uterine ([6]; group G6): 8 (3×) and 9 and 6 (2×) | Thickness, Uterine ([6]; group G7): 8 (3×) and 7 (2×) and 9 | Thickness, Uterine ([6]; group G8): 6 and 8 (2×) and 10 (2×) and 7 | Thickness, Uterine ([6]; group G9): 7 (2×) and 9 (2×) and 6 (2×) | Thickness, Uterine ([6]; group G10): 9 (3×) and 8 (2×) and 11 | Thickness, Uterine ([6]; group G11): 5 and 7 (4×) and 9 | Thickness, Uterine ([6]; group G12): 9 and 7 (3×) and 6 and 8 | Thickness, Uterine ([6]; group G13): 6 (2×) and 7 and 8 (2×) and 9 | Thickness, Uterine ([6]; group G14): 8 (3×) and 6 and 7 and 9 | Thickness, Uterine ([6]; group G15): 9 and 8 (5×) | Thickness, Uterine ([6]; group G16): 6 (2×) and 7 (3×) and 8

Dissolution of Lasofoxifene in various organic solvents and surfactants, 2 mg/ml [1]: dissolved | Dissolution of Lasofoxifene in various organic solvents and surfactants, 3 mg/ml [1]: dissolved | Dissolution of Lasofoxifene in various organic solvents and surfactants, 6 mg/ml [1]: dissolved | Dissolution of Lasofoxifene in various organic solvents and surfactants, 1 mg/ml [2]: dissolved
Structure (SMILES): C[S+](C)[O-] [DMSO, dimethyl sulfoxide]

Dissolution of Lasofoxifene in various organic solvents and surfactants, 1 mg/ml [2]: not dissolved
Structure (SMILES): CCOC(=O)CC(CC(=O)OCC)(OC(C)=O)C(=O)OCC [Triethyl acetyl citrate (TEAC), Triethyl acetyl citrate]

Dissolution of Lasofoxifene in various organic solvents and surfactants, 2 mg/ml [1]: partially | Dissolution of Lasofoxifene in various organic solvents and surfactants, 3 mg/ml [1]: not dissolved | Dissolution of Lasofoxifene in various organic solvents and surfactants, 1 mg/ml [2]: dissolved
Structure (SMILES): OCC(O)CO [Glycerol 85%, Glycerol]

Dissolution of Lasofoxifene in various organic solvents and surfactants, 2 mg/ml [1]: dissolved* | Dissolution of Lasofoxifene in various organic solvents and surfactants, 3 mg/ml [1]: partially | Dissolution of Lasofoxifene in various organic solvents and surfactants, 6 mg/ml [1]: not dissolved | Dissolution of Lasofoxifene in various organic solvents and surfactants, 1 mg/ml [2]: dissolved
Structure (SMILES): CC(O)CO (stereo not shown) [Propylene glycol (PG), Propylene glycol]

Dissolution of Lasofoxifene in various organic solvents and surfactants, 2 mg/ml [1]: dissolved | Dissolution of Lasofoxifene in various organic solvents and surfactants, 3 mg/ml [1]: dissolved | Dissolution of Lasofoxifene in various organic solvents and surfactants, 1 mg/ml [2]: dissolved
Structure (SMILES): CCOCCOCCO [Transcutol (TC), Diethylene glycol monoethyl ether]

Dissolution of Lasofoxifene in various organic solvents and surfactants, 1 mg/ml [2]: not dissolved
Structure (SMILES): CCCCOC(=O)CC(CC(=O)OCCCC)(OC(C)=O)C(=O)OCCCC [Tributyl acetyl citrate (TBAC), Tributyl acetyl citrate]
